Experimental data published in ChEMBL document CHEMBL2057064, “Activation of human RNase L by 2'- and 5'-O-methylphosphonate-modified oligoadenylates” (Bioorg Med Chem Lett, 2012).
Calls of active or inactive are those of the source. The calls are words filed in the database; no cut-off is given here.

target: T1, 2-5A-dependent ribonuclease (Homo sapiens) (UniProt Q05823); test: Antagonist activity at human RNase L expressed in Escherichia coli BL21 (DE3) cells assessed as RNA cleavage using Cy5-C11-rUU-C7-BHQ2 as substrate by FRET assay in presence of natural activator pAAAA; format: functional
T1 sequence (whole entry): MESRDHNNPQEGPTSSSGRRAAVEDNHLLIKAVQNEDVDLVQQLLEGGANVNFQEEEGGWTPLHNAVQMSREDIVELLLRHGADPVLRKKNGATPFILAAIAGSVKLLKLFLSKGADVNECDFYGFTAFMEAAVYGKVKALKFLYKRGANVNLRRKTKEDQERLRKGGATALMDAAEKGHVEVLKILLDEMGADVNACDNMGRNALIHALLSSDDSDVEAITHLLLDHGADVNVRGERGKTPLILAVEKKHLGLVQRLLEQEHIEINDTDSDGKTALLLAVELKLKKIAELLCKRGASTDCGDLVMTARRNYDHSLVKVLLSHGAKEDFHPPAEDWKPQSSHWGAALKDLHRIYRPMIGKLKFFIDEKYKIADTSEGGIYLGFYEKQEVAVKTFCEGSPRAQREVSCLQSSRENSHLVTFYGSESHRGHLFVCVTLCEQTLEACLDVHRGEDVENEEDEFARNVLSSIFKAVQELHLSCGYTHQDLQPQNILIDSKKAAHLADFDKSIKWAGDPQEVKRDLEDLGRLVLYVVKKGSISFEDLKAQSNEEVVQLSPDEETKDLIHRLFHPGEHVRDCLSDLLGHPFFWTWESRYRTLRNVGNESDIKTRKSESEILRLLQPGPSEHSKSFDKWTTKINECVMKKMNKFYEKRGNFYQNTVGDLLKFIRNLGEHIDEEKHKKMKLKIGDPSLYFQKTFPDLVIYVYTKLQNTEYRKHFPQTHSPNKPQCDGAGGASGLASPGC

Compound	inhibition
Nc1ncnc2c1ncn2[C@@H]1O[C@H](COP(=O)(O)CO[C@H]2[C@H](O)[C@@H](COP(=O)(O)CO[C@H]3[C@H](O)[C@@H](COP(=O)(O)CO[C@H]4[C@H](O)[C@@H](COP(=O)(O)O)O[C@H]4n4cnc5c(N)ncnc54)O[C@H]3n3cnc4c(N)ncnc43)O[C@H]2n2cnc3c(N)ncnc32)[C@@H](O)[C@H]1O	inactive
Nc1ncnc2c1ncn2[C@@H]1O[C@H](COP(=O)(O)CO[C@H]2[C@H](O)[C@@H](COP(=O)(O)O[C@@H]3[C@H](O)[C@@H](COP(=O)(O)CO[C@H]4[C@H](O)[C@@H](COP(=O)(O)O)O[C@H]4n4cnc5c(N)ncnc54)O[C@H]3n3cnc4c(N)ncnc43)O[C@H]2n2cnc3c(N)ncnc32)[C@@H](O)[C@H]1O	inactive
Nc1ncnc2c1ncn2[C@@H]1O[C@H](COP(=O)(O)O[C@@H]2[C@H](O)[C@@H](COP(=O)(O)O[C@H]3[C@H](O)[C@@H](COCP(=O)(O)O[C@H]4[C@H](O)[C@@H](COCP(=O)(O)O)O[C@H]4n4cnc5c(N)ncnc54)O[C@H]3n3cnc4c(N)ncnc43)O[C@H]2n2cnc3c(N)ncnc32)[C@@H](O)[C@H]1O	inactive
Nc1ncnc2c1ncn2[C@@H]1O[C@H](COP(=O)(O)CO[C@@H]2[C@@H](O)[C@@H](COP(=O)(O)O[C@@H]3[C@H](O)[C@@H](COP(=O)(O)CO[C@@H]4[C@@H](O)[C@@H](COP(=O)(O)O)O[C@H]4n4cnc5c(N)ncnc54)O[C@H]3n3cnc4c(N)ncnc43)O[C@H]2n2cnc3c(N)ncnc32)[C@@H](O)[C@H]1O	inactive
Nc1ncnc2c1ncn2[C@@H]1O[C@H](COCP(=O)(O)O[C@@H]2[C@@H](O)[C@@H](COCP(=O)(O)O[C@@H]3[C@@H](O)[C@@H](COCP(=O)(O)O[C@@H]4[C@H](O)[C@@H](COP(=O)(O)O)O[C@H]4n4cnc5c(N)ncnc54)O[C@H]3n3cnc4c(N)ncnc43)O[C@H]2n2cnc3c(N)ncnc32)[C@H](O)[C@H]1O	inactive
Nc1ncnc2c1ncn2[C@@H]1O[C@H](COCP(=O)(O)O[C@@H]2[C@H](O)[C@@H](COP(=O)(O)O[C@@H]3[C@H](O)[C@@H](COP(=O)(O)O[C@H]4[C@H](O)[C@@H](COCP(=O)(O)O)O[C@H]4n4cnc5c(N)ncnc54)O[C@H]3n3cnc4c(N)ncnc43)O[C@H]2n2cnc3c(N)ncnc32)[C@@H](O)[C@@H]1O	inactive
Nc1ncnc2c1ncn2[C@@H]1O[C@H](COP(=O)(O)O[C@H]2[C@H](O)[C@@H](COCP(=O)(O)O[C@@H]3[C@H](O)[C@@H](COP(=O)(O)O[C@H]4[C@H](O)[C@@H](COCP(=O)(O)O)O[C@H]4n4cnc5c(N)ncnc54)O[C@H]3n3cnc4c(N)ncnc43)O[C@H]2n2cnc3c(N)ncnc32)[C@@H](O)[C@H]1O	inactive
Nc1ncnc2c1ncn2[C@@H]1O[C@H](COCP(=O)(O)O[C@@H]2[C@@H](O)[C@@H](COCP(=O)(O)O[C@@H]3[C@@H](O)[C@@H](COCP(=O)(O)O[C@@H]4[C@@H](O)[C@@H](COCP(=O)(O)O)O[C@H]4n4cnc5c(N)ncnc54)O[C@H]3n3cnc4c(N)ncnc43)O[C@H]2n2cnc3c(N)ncnc32)[C@H](O)[C@H]1O	inactive
Nc1ncnc2c1ncn2[C@@H]1O[C@H](COCP(=O)(O)O[C@@H]2[C@H](O)[C@@H](COP(=O)(O)O[C@@H]3[C@@H](O)[C@@H](COCP(=O)(O)O[C@@H]4[C@H](O)[C@@H](COP(=O)(O)O)O[C@H]4n4cnc5c(N)ncnc54)O[C@H]3n3cnc4c(N)ncnc43)O[C@H]2n2cnc3c(N)ncnc32)[C@H](O)[C@H]1O	inactive
Nc1ncnc2c1ncn2[C@@H]1O[C@H](COP(=O)(O)O[C@@H]2[C@H](O)[C@@H](COCP(=O)(O)O[C@@H]3[C@H](O)[C@@H](COCP(=O)(O)O[C@@H]4[C@H](O)[C@@H](COP(=O)(O)O)O[C@H]4n4cnc5c(N)ncnc54)O[C@H]3n3cnc4c(N)ncnc43)O[C@H]2n2cnc3c(N)ncnc32)[C@@H](O)[C@H]1O	inactive
Nc1ncnc2c1ncn2[C@@H]1O[C@H](COP(=O)(O)CO[C@H]2[C@H](O)[C@@H](COP(=O)(O)CO[C@H]3[C@H](O)[C@@H](COP(=O)(O)O[C@@H]4[C@H](O)[C@@H](COP(=O)(O)O)O[C@H]4n4cnc5c(N)ncnc54)O[C@H]3n3cnc4c(N)ncnc43)O[C@H]2n2cnc3c(N)ncnc32)[C@@H](O)[C@H]1O	inactive
Nc1ncnc2c1ncn2[C@@H]1O[C@H](COP(=O)(O)CO[C@@H]2[C@@H](O)[C@@H](COP(=O)(O)CO[C@@H]3[C@@H](O)[C@@H](COP(=O)(O)CO[C@@H]4[C@@H](O)[C@@H](COP(=O)(O)O)O[C@H]4n4cnc5c(N)ncnc54)O[C@H]3n3cnc4c(N)ncnc43)O[C@H]2n2cnc3c(N)ncnc32)[C@@H](O)[C@H]1O	inactive
Nc1ncnc2c1ncn2[C@@H]1O[C@H](COCP(=O)(O)O[C@@H]2[C@H](O)[C@@H](COP(=O)(O)O[C@@H]3[C@H](O)[C@@H](COP(=O)(O)O[C@@H]4[C@@H](O)[C@@H](COCP(=O)(O)O)O[C@H]4n4cnc5c(N)ncnc54)O[C@H]3n3cnc4c(N)ncnc43)O[C@H]2n2cnc3c(N)ncnc32)[C@H](O)[C@H]1O	inactive
Nc1ncnc2c1ncn2[C@@H]1O[C@H](COP(=O)(O)O[C@@H]2[C@@H](O)[C@@H](COCP(=O)(O)O[C@@H]3[C@H](O)[C@@H](COP(=O)(O)O[C@@H]4[C@@H](O)[C@@H](COCP(=O)(O)O)O[C@H]4n4cnc5c(N)ncnc54)O[C@H]3n3cnc4c(N)ncnc43)O[C@H]2n2cnc3c(N)ncnc32)[C@@H](O)[C@H]1O	inactive
Nc1ncnc2c1ncn2[C@@H]1O[C@H](COCP(=O)(O)O[C@H]2[C@H](O)[C@@H](COCP(=O)(O)O[C@H]3[C@H](O)[C@@H](COCP(=O)(O)O[C@H]4[C@H](O)[C@@H](COCP(=O)(O)O)O[C@H]4n4cnc5c(N)ncnc54)O[C@H]3n3cnc4c(N)ncnc43)O[C@H]2n2cnc3c(N)ncnc32)[C@@H](O)[C@@H]1O	inactive
Nc1ncnc2c1ncn2[C@@H]1O[C@H](COP(=O)(O)O[C@@H]2[C@@H](O)[C@@H](COCP(=O)(O)O[C@@H]3[C@@H](O)[C@@H](COCP(=O)(O)O[C@@H]4[C@@H](O)[C@@H](COCP(=O)(O)O)O[C@H]4n4cnc5c(N)ncnc54)O[C@H]3n3cnc4c(N)ncnc43)O[C@H]2n2cnc3c(N)ncnc32)[C@@H](O)[C@H]1O	inactive
Nc1ncnc2c1ncn2[C@@H]1O[C@H](COCP(=O)(O)O[C@H]2[C@H](O)[C@@H](COCP(=O)(O)O[C@@H]3[C@H](O)[C@@H](COP(=O)(O)O[C@@H]4[C@H](O)[C@@H](COP(=O)(O)O)O[C@H]4n4cnc5c(N)ncnc54)O[C@H]3n3cnc4c(N)ncnc43)O[C@H]2n2cnc3c(N)ncnc32)[C@@H](O)[C@@H]1O	inactive
Nc1ncnc2c1ncn2[C@@H]1O[C@H](COP(=O)(O)CO[C@@H]2[C@@H](O)[C@@H](COP(=O)(O)CO[C@@H]3[C@@H](O)[C@@H](COP(=O)(O)O[C@@H]4[C@H](O)[C@@H](COP(=O)(O)O)O[C@H]4n4cnc5c(N)ncnc54)O[C@H]3n3cnc4c(N)ncnc43)O[C@H]2n2cnc3c(N)ncnc32)[C@@H](O)[C@H]1O	inactive
Nc1ncnc2c1ncn2[C@@H]1O[C@H](COCP(=O)(O)O[C@@H]2[C@H](O)[C@@H](COCP(=O)(O)O[C@@H]3[C@H](O)[C@@H](COP(=O)(O)O[C@@H]4[C@H](O)[C@@H](COP(=O)(O)O)O[C@H]4n4cnc5c(N)ncnc54)O[C@H]3n3cnc4c(N)ncnc43)O[C@H]2n2cnc3c(N)ncnc32)[C@@H](O)[C@H]1O	inactive
